Data: patent publication US20240208968A1, “ALPHA V BETA 6 AND ALPHA V BETA 1 INTEGRIN INHIBITORS AND USES THEREOF” (DiCE Molecules SV, Inc., priority 2021, published 2024)
Counter-ions that a name gives are not always drawn.

What was measured:
[1] = target: αvβ1 (Homo sapiens, UniProt P05556+P06756); assay: Solid Phase Integrin αvβ1 Assay; type: binding
In short: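 Compound competes for αvβ1 binding to immobilized TGFb1-LAP (1 µg/mL coat) in Mn2+ (1 mM MnCl2), 2% BSA binding buffer over 90 min at room temperature, integrin added at 0.2 µg/mL. Read-out: streptavidin-HRP/TMB; IC50 from Levenberg-Marquardt four-parameter fit.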

[2] = target: αvβ6 (Homo sapiens, UniProt P06756+P18564); assay: Solid Phase Integrin αvβ6 Assay; type: binding
Chain of αvβ6 (P06756 31-992 limits assumed): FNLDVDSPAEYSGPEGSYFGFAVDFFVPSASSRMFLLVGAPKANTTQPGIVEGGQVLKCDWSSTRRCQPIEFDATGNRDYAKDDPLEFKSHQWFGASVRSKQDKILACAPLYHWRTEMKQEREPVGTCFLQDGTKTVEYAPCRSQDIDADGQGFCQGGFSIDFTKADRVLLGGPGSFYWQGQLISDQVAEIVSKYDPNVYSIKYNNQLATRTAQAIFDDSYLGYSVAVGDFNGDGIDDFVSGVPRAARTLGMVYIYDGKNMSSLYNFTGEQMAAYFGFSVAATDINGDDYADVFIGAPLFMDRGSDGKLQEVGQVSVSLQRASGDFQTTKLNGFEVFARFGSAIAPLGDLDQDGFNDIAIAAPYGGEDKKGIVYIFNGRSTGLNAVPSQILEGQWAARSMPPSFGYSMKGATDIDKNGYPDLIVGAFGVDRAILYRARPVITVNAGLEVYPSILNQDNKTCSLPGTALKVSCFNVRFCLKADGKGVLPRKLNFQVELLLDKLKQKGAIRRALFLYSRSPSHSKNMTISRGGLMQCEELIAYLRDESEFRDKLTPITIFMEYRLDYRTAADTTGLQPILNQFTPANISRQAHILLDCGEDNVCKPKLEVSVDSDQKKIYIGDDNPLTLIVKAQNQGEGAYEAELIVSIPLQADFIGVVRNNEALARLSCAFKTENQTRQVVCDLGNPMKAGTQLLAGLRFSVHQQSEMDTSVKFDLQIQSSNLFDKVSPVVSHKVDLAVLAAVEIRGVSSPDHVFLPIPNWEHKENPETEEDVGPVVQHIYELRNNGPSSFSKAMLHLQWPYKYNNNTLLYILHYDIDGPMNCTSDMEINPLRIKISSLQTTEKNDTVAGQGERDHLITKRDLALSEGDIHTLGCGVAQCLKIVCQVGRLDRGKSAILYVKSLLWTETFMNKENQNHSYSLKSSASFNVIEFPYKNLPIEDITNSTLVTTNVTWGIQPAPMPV
Chain of αvβ6 (P18564 22-707 limits assumed): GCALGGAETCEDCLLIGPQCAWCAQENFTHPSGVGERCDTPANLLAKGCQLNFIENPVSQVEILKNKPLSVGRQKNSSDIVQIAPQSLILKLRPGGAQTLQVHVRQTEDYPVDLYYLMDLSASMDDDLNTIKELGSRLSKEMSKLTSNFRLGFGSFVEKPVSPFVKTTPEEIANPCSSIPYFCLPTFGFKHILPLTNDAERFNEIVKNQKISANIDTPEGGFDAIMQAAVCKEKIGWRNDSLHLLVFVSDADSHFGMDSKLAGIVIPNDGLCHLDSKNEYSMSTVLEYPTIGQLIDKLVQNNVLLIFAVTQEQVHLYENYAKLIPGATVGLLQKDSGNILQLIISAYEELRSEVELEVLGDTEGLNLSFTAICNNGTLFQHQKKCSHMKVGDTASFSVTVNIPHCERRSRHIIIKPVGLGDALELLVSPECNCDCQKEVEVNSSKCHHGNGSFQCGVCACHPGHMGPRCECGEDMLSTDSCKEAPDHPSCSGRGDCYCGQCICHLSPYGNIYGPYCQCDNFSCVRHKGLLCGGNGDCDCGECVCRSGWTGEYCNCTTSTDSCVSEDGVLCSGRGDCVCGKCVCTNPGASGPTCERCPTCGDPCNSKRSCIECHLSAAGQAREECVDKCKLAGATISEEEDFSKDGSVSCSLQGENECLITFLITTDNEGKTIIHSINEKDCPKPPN
In short: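 Inhibition of αvβ6 binding to immobilized recombinant TGFb1-LAP (1 μg/mL coating), 1 h at room temperature with 1 mM MnCl2 in BSA/TBST buffer, integrin diluted to 0.2 μg/mL before addition. Streptavidin-HRP/TMB read-out; four-parameter logistic fitting gave IC50.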

Chain of αvβ1 (P06756 31-992 limits assumed): as the sequence (P06756 31-992 limits assumed) above
Chain of αvβ1 (P05556 21-728 limits assumed): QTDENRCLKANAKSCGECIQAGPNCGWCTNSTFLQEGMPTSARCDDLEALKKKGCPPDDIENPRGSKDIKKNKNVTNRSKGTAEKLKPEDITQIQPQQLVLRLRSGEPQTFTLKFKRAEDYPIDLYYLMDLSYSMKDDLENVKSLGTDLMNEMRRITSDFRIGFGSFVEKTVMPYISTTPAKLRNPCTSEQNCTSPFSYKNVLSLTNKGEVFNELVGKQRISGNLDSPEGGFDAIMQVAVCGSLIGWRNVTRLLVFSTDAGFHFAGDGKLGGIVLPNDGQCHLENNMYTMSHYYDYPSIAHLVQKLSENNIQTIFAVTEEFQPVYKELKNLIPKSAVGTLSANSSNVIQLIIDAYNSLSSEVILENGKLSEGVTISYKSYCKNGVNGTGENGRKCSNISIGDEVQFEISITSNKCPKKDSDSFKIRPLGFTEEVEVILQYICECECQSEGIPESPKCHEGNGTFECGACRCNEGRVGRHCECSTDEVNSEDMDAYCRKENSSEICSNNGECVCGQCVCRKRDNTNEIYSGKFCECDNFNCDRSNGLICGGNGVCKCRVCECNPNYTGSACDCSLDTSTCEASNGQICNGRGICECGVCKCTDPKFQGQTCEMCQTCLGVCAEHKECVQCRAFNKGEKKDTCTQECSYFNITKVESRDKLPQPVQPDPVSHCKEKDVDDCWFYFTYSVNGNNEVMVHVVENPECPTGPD

| Structure (SMILES) | IC50 [1] [nM] | IC50 [2] [nM] |
| --- | --- | --- |
| CC1(C)CCN(c2cccc([C@H](CC(=O)O)NC(=O)[C@@H]3CCCN(CCCc4ccc5c(n4)NCCC5)C3)c2)CC1 [Compound 237, (S)-3-(3-(4,4-dimethylpiperidin-1-yl)phenyl)-3-((R)-1-(3-(5,6,7,8-tetrahydro-1,8-naphthyridin-2-yl)propyl)piperidine-3-carboxamido)propanoic acid] | < 100 | < 100 |
| CC1(C)CN(c2cccc([C@H](CC(=O)O)NC(=O)[C@@H]3CCCN(CCCc4ccc5c(n4)NCCC5)C3)c2)CC(C)(C)O1 [Compound 242, (S)-3-((R)-1-(3-(5,6,7,8-tetrahydro-1,8-naphthyridin-2-yl)propyl)piperidine-3-carboxamido)-3-(3-(2,2,6,6-tetramethylmorpholino)phenyl)propanoic acid] | < 100 | < 100 |
| O=C(O)C[C@@H](NC(=O)[C@@H]1CCCN(CCCc2ccc3c(n2)NCCC3)C1)c1ccc(F)c(C2CC2)c1 [Compound 244-B, 3-(3-cyclopropyl-4-fluorophenyl)-3-((R)-1-(3-(5,6,7,8-tetrahydro-1,8-naphthyridin-2-yl)propyl)piperidine-3-carboxamido)propanoic acid] | < 100 | < 100 |
| O=C(NC[C@H](C(=O)O)c1ccc2c(c1)CCCC2)[C@@H]1CCCN(CCCc2ccc3c(n2)NCCC3)C1 [Compound 248-A, 3-((R)-1-(3-(5,6,7,8-tetrahydro-1,8-naphthyridin-2-yl)propyl)piperidine-3-carboxamido)-2-(5,6,7,8-tetrahydronaphthalen-2-yl)propanoic acid] | 100 to 1000 | 100 to 1000 |
| O=C(NC[C@@H](C(=O)O)c1ccc2c(c1)CCCC2)[C@@H]1CCCN(CCCc2ccc3c(n2)NCCC3)C1 [Compound 248-B, 3-((R)-1-(3-(5,6,7,8-tetrahydro-1,8-naphthyridin-2-yl)propyl)piperidine-3-carboxamido)-2-(5,6,7,8-tetrahydronaphthalen-2-yl)propanoic acid] | < 100 | < 100 |
| O=C(NC[C@@H](C(=O)O)c1ccc2ccccc2c1)[C@@H]1CCCN(CCCc2ccc3c(n2)NCCC3)C1 [Compound 249-B, 2-(naphthalen-2-yl)-3-((R)-1-(3-(5,6,7,8-tetrahydro-1,8-naphthyridin-2-yl)propyl)piperidine-3-carboxamido)propanoic acid] | < 100 | < 100 |
| O=C(NC[C@H](C(=O)O)c1cccc2ccccc12)[C@@H]1CCCN(CCCc2ccc3c(n2)NCCC3)C1 [Compound 250-B, 2-(naphthalen-1-yl)-3-((R)-1-(3-(5,6,7,8-tetrahydro-1,8-naphthyridin-2-yl)propyl)piperidine-3-carboxamido)propanoic acid] | 100 to 1000 | > 1000 |
| O=C(NC[C@H](C(=O)O)c1cccc(Oc2ccccc2)c1)[C@@H]1CCCN(CCCc2ccc3c(n2)NCCC3)C1 [Compound 251-B] | < 100 | < 100 |
| O=C(NC[C@@H](C(=O)O)c1cccc(C(F)(F)F)c1)[C@@H]1CCCN(CCCc2ccc3c(n2)NCCC3)C1 [Compound 252-A, 3-((R)-1-(3-(5,6,7,8-tetrahydro-1,8-naphthyridin-2-yl)propyl)piperidine-3-carboxamido)-2-(3-(trifluoromethyl)phenyl)propanoic acid] | < 100 | 100 to 1000 |
| O=C(NC[C@H](C(=O)O)c1cccc(C(F)(F)F)c1)[C@@H]1CCCN(CCCc2ccc3c(n2)NCCC3)C1 [Compound 252-B, 3-((R)-1-(3-(5,6,7,8-tetrahydro-1,8-naphthyridin-2-yl)propyl)piperidine-3-carboxamido)-2-(3-(trifluoromethyl)phenyl)propanoic acid] | > 1000 | < 100 |
| O=C(NC[C@H](C(=O)O)c1cccc2c1CCCC2)[C@@H]1CCCN(CCCc2ccc3c(n2)NCCC3)C1 [Compound 253-A, 3-((R)-1-(3-(5,6,7,8-tetrahydro-1,8-naphthyridin-2-yl)propyl)piperidine-3-carboxamido)-2-(5,6,7,8-tetrahydronaphthalen-1-yl)propanoic acid] | < 100 | < 100 |
| O=C(NC[C@@H](C(=O)O)c1cccc2c1CCCC2)[C@@H]1CCCN(CCCc2ccc3c(n2)NCCC3)C1 [Compound 253-B, 3-((R)-1-(3-(5,6,7,8-tetrahydro-1,8-naphthyridin-2-yl)propyl)piperidine-3-carboxamido)-2-(5,6,7,8-tetrahydronaphthalen-1-yl)propanoic acid] | 100 to 1000 | > 1000 |

More lines, now with the values ahead:

| IC50 [1] [nM] | IC50 [2] [nM] | Structure (SMILES) |
| --- | --- | --- |
| < 100 | < 100 | CC1(C)CN(c2cccc([C@H](CC(=O)O)NC(=O)[C@@H]3CCCN(CCCc4ccc5c(n4)NCCC5)C3)c2)CCO1 [Compound 234, (S)-3-(3-(2,2-dimethylmorpholino)phenyl)-3-((R)-1-(3-(5,6,7,8-tetrahydro-1,8-naphthyridin-2-yl)propyl)piperidine-3-carboxamido)propanoic acid] |
| < 100 | < 100 | CC1(C)COCCN1c1cccc([C@H](CC(=O)O)NC(=O)[C@@H]2CCCN(CCCc3ccc4c(n3)NCCC4)C2)c1 [Compound 235, (S)-3-(3-(3,3-dimethylmorpholino)phenyl)-3-((R)-1-(3-(5,6,7,8-tetrahydro-1,8-naphthyridin-2-yl)propyl)piperidine-3-carboxamido)propanoic acid] |
| < 100 | < 100 | C[C@@H]1CN(c2cccc([C@H](CC(=O)O)NC(=O)[C@@H]3CCCN(CCCc4ccc5c(n4)NCCC5)C3)c2)C[C@H](C)O1 [Compound 236, (S)-3-(3-((2S,6R)-2,6-dimethylmorpholino)phenyl)-3-((R)-1-(3-(5,6,7,8-tetrahydro-1,8-naphthyridin-2-yl)propyl)piperidine-3-carboxamido)propanoic acid] |
| < 100 | < 100 | Cc1ccn(-c2cccc([C@H](CC(=O)O)NC(=O)[C@@H]3CCCN(CCCc4ccc5c(n4)NCCC5)C3)c2)n1 [Compound 238, (S)-3-(3-(3-methyl-1H-pyrazol-1-yl)phenyl)-3-((R)-1-(3-(5,6,7,8-tetrahydro-1,8-naphthyridin-2-yl)propyl)piperidine-3-carboxamido)propanoic acid] |
| < 100 | < 100 | O=C(O)C[C@H](NC(=O)[C@@H]1CCCN(CCCc2ccc3c(n2)NCCC3)C1)c1cccc(N2CCCC2=O)c1 [Compound 239, (S)-3-(3-(2-oxopyrrolidin-1-yl)phenyl)-3-((R)-1-(3-(5,6,7,8-tetrahydro-1,8-naphthyridin-2-yl)propyl)piperidine-3-carboxamido)propanoic acid] |
| < 100 | < 100 | O=C(O)C[C@H](NC(=O)[C@@H]1CCCN(CCCc2ccc3c(n2)NCCC3)C1)c1cccc(-c2ccccc2)c1 [Compound 240, (S)-3-([1,1′-biphenyl]-3-yl)-3-((R)-1-(3-(5,6,7,8-tetrahydro-1,8-naphthyridin-2-yl)propyl)piperidine-3-carboxamido)propanoic acid hydrochloride] |
| < 100 | < 100 | O=C(O)C[C@H](NC(=O)[C@@H]1CCCN(CCCc2ccc3c(n2)NCCC3)C1)c1ccc(F)c(C2CC2)c1 [Compound 244-A, 3-(3-cyclopropyl-4-fluorophenyl)-3-((R)-1-(3-(5,6,7,8-tetrahydro-1,8-naphthyridin-2-yl)propyl)piperidine-3-carboxamido)propanoic acid] |
| 100 to 1000 | < 100 | O=C(O)C[C@H](NC(=O)[C@@H]1CCCN(CCCc2ccc3c(n2)NCCC3)C1)c1cc(C2CC2)ccc1F [Compound 245-A, 3-(5-cyclopropyl-2-fluorophenyl)-3-((R)-1-(3-(5,6,7,8-tetrahydro-1,8-naphthyridin-2-yl)propyl)piperidine-3-carboxamido)propanoic acid] |
| < 100 | < 100 | O=C(O)C[C@@H](NC(=O)[C@@H]1CCCN(CCCc2ccc3c(n2)NCCC3)C1)c1cc(C2CC2)ccc1F [Compound 245-B, 3-(5-cyclopropyl-2-fluorophenyl)-3-((R)-1-(3-(5,6,7,8-tetrahydro-1,8-naphthyridin-2-yl)propyl)piperidine-3-carboxamido)propanoic acid] |
| < 100 | < 100 | O=C(NC[C@@H](C(=O)O)c1ccccc1)[C@@H]1CCCN(CCCc2ccc3c(n2)NCCC3)C1 [Compound 246, (S)-2-phenyl-3-((R)-1-(3-(5,6,7,8-tetrahydro-1,8-naphthyridin-2-yl)propyl)piperidine-3-carboxamido)propanoic acid] |
| < 100 | < 100 | O=C(NC[C@H](C(=O)O)c1ccccc1)[C@@H]1CCCN(CCCc2ccc3c(n2)NCCC3)C1 [Compound 247, (R)-2-phenyl-3-((R)-1-(3-(5,6,7,8-tetrahydro-1,8-naphthyridin-2-yl)propyl)piperidine-3-carboxamido)propanoic acid] |
| < 100 | < 100 | O=C(NC[C@H](C(=O)O)c1ccc2ccccc2c1)[C@@H]1CCCN(CCCc2ccc3c(n2)NCCC3)C1 [Compound 249-A, 2-(naphthalen-2-yl)-3-((R)-1-(3-(5,6,7,8-tetrahydro-1,8-naphthyridin-2-yl)propyl)piperidine-3-carboxamido)propanoic acid] |
| < 100 | < 100 | O=C(NC[C@@H](C(=O)O)c1cccc2ccccc12)[C@@H]1CCCN(CCCc2ccc3c(n2)NCCC3)C1 [Compound 250-A, 2-(naphthalen-1-yl)-3-((R)-1-(3-(5,6,7,8-tetrahydro-1,8-naphthyridin-2-yl)propyl)piperidine-3-carboxamido)propanoic acid] |
| 100 to 1000 | 100 to 1000 | O=C(NC[C@@H](C(=O)O)c1cccc(Oc2ccccc2)c1)[C@@H]1CCCN(CCCc2ccc3c(n2)NCCC3)C1 [Compound 251-A] |
